In patent US6117833A, “Bleaching compositions and method for bleaching substrates directly with air” (priority 1998, dated 2000):
“Also recorded” adds a separate entry of the source.

Key:
[1] = Bleaching of tea-stained (BC-1) swatches by aldehyde + NHPI + air in Tergotometer (change in reflectance); details: aldehyde 15 mM, NHPI 1 mM, carbonate buffer, 30 min, 25° C., 460 nm, average of 2 values (6 for * = Exceptional Bleaching Aldehyde)
Description: A general outline of the essential steps in our experimental protocol are shown below.
a) Measure the initial reflectance of the swatches (Ri).
b) Saturate the wash solution with air.
c) Wash, rinse and dry the swatches.
d) Measure the final reflectance of the swatches (Rf).
All work was conducted in a Tergotometer with 2L stainless steel pots. The swatches were dried flat on a rack in a Kenmore dryer. […] The conditions utilized were as follows:
Initiator N-Hydroxyphthalimide (NHPI, 1 mM)
Aldehyde Aldehyde (15 mM)
Each Tergotometer Pot was filled with 1 liter of milli-Q-water containing carbonate buffer solution which was saturated for 15 minutes with air under agitation at 25° C. Tea stained (BC-1) swatches were washed for 30 minutes in the presence of aldehyde, air and NHPI at pH=8 (25° C.). The corresponding controls (buffer alone, NHPI alone and aldehyde alone) were performed simultaneously. All swatches were rinsed twice for 3 minutes with agitation at 25° C. and dried flat on a rack in a Kenmore with soft heat for 30 minutes.
To quantify the degree of stain removal, the reflectance of 4 stained swatches (4 per pot) were measured before and after washing using a Gardner reflectometer (Model #2000) set at 460*nm (*UV filter). The change in reflectance (ΔR) was determined by taking the difference of the swatch before and after each washing. The standard deviation (σ) and ΔΔRave was assigned to each experimental group.
Rl =Initial reflectance of stained swatch before washing.
Rf =Final reflectance of stained swatch after washing.
ΔRaldehyde system+control -ΔRcontrol =ΔΔR
ΔΔRave =Represents the average bleaching by the aldehyde system.
In general, the larger the ΔΔRave value, the greater the bleaching and cleaning.
(σ)=[Σ^n aj -aa)^2 /N-I]^0.5
Σ^n =sum (aj -aa)^2 per measurement
N=number of measurements=8

[2] = Bleaching on BC-1 by 4-Ethylbenzaldehyde with various initiators; parameters: key to Δ(ΔR), #1 / Δ(ΔR), #2 / Δ(ΔR), #3 / Δ(ΔR), Average / ΔΔRave: Δ(ΔR): reflectance change of stained cloth relative to buffer ΔR; details: for Δ(ΔR), Average / Δ(ΔR), #1 / Δ(ΔR), #2 / Δ(ΔR), #3: 1 mM, σav = 0.4; for Δ(ΔR), Average: average of #1-#3; for Δ(ΔR), #1: run #1; for Δ(ΔR), #2: run #2; for Δ(ΔR), #3: run #3; for cleaning / bleaching (in words): initiator alone or 4-EBA alone
Description: A series of experiments were conducted to evaluate the bleaching effectiveness of NHPI and related imides. Table IV reports the effectiveness on tea stained cloth swatches by various imide initiators in combination with 4-ethylbenzaldehyde.
Value for Carbonate Buffer = ΔR
Value for Initiator = Δ(ΔR)
Value for 4EBA + Initiator = Δ(ΔR)
* = Statistically significant bleaching over buffer alone (σav

Compound	ΔΔRave on BC-1 at pH = 8 [1]	also measured
O=Cc1ccccc1 [Benzaldehyde]	1.5	
COc1ccc(C=O)cc1 [4-Methoxybenzaldehyde]	1.2	
COc1ccccc1C=O [2-Methoxybenzaldehyde]	0.8	
O=C1CC(S(=O)(=O)O)C(=O)N1O (stereo not drawn) [NHSISA]		Δ(ΔR), Average ([2]; initiator alone): 0.2; Δ(ΔR), #1 ([2]; initiator alone): 0.2; Δ(ΔR), #2 ([2]; initiator alone): 0.5; Δ(ΔR), #3 ([2]; initiator alone): 0.0
CCCCCC(C=O)=Cc1ccccc1 [α-Amylcinnamaldehyde]	1.0	
O=C1c2ccccc2C(=O)N1O [NHPI, N-hydroxyphthalimide]		ΔΔRave ([2]; initiator alone): -0.2; cleaning / bleaching (in words) [2]: did not provide a cleaning benefit; Δ(ΔR), Average ([2]; initiator alone): -0.3; Δ(ΔR), #1 ([2]; initiator alone): -0.1; Δ(ΔR), #2 ([2]; initiator alone): 0.1; Δ(ΔR), #3 ([2]; initiator alone): -0.7
CC1(C)CCCC(C)(C)N1[O] [TEMPO]		Δ(ΔR), Average ([2]; initiator alone): 1.8; Δ(ΔR), #1 ([2]; initiator alone): 1.8; Δ(ΔR), #2 ([2]; initiator alone): 1.8; Δ(ΔR), #3 ([2]; initiator alone): 1.9
CCCC=O [n-Butyraldehyde]	0.6	
CCCCCCCCCC=O [n-Decylaldehyde]	0.6	
O=Cc1cccc([N+](=O)[O-])c1 [3-Nitrobenzaldehyde]	1.2	
Cc1ccc(C=O)cc1C [3,4-Dimethylbenzaldehyde]	10.3	
O=Cc1ccc(Cl)cc1 [4-Chlorobenzaldehyde]	-0.1	
O=Cc1ccco1 [2-Furfural]	0.2	
O=CC(O)CO (racemic) [DL-Glyceraldehyde]	-0.8	
O=Cc1cccc(C(F)(F)F)c1 [3-Trifluoromethylbenzaldehyde]	3.1	
O=Cc1ccc(F)cc1 [4-Fluorobenzaldehyde]	1.6	
CC(C)c1ccc(C=O)cc1 [4-Isopropylbenzaldehyde]	1.5	
Cc1ccccc1C=O [2-Methylbenzaldehyde]	5.8	
CCCCCCCCCCC=O [n-Undecylaldehyde]	0.0	
O=Cc1cccc(Oc2ccccc2)c1 [3-Phenoxybenzaldehyde]	1.1	
CC(C)(C)c1cc(C=O)cc(C(C)(C)C)c1O [4-Hydroxy-3,5-t-Butylbenzaldehyde]	0.0	
O=C1CCC(=O)N1O [NHSI]		Δ(ΔR), Average ([2]; initiator alone): 0.0; Δ(ΔR), #1 ([2]; initiator alone): 0.0; Δ(ΔR), #2 ([2]; initiator alone): 0.0; Δ(ΔR), #3 ([2]; initiator alone): 0.0
CCCCCCCCCCCC=O [n-Dodecylaldehyde]	0.2	
O=Cc1cccc(Br)c1 [3-Bromobenzaldehyde]	3.2	
O=Cc1ccc(C(=O)O)cc1 [4-Carboxybenzaldehyde]	-0.1	

Compound	ΔΔRave on BC-1 at pH = 8 [1]	also measured
O=Cc1ccc(C(F)(F)F)cc1 [4-Trifluoromethylbenzaldehyde]	0.3	
O=Cc1ccc([N+](=O)[O-])cc1 [4-Nitrobenzaldehyde]	0.3	
O=Cc1c(Cl)cccc1Cl [2,6-Dichlorobenzaldehyde]	0.0	
Cc1ccc(C=O)cc1 [4-Methylbenzaldehyde]	8.3	
O=C1C=CC(=O)N1O [NHMI]		Δ(ΔR), Average ([2]; initiator alone): 0.3; Δ(ΔR), #1 ([2]; initiator alone): 0.6; Δ(ΔR), #2 ([2]; initiator alone): 0.1; Δ(ΔR), #3 ([2]; initiator alone): 0.3
COc1cc(C=O)cc(OC)c1 [3,5-Dimethoxybenzaldehyde]	1.4	
O=Cc1cc([N+](=O)[O-])cc([N+](=O)[O-])c1 [3,5-Dinitrobenzaldehyde]	0.1	
O=Cc1ccc(C=O)cc1 [Phenyl-1,4-dicarboxyaldehyde]	-1.1	
O=Cc1ccccc1S(=O)(=O)O [1-Formylbenzene-2-sulfonic acid]	0.5	
O=Cc1ccccc1Br [2-Bromobenzaldehyde]	2.1	
O=Cc1ccccc1C=O [Phenyl-1,2-dicarboxyaldehyde]	1.1	
O=CN1CCOCC1 [4-Formylmorpholine]	0.1	
O=Cc1ccccc1Cl [2-Chlorobenzaldehyde]	8.7	
O=Cc1cccc(F)c1 [3-Fluorobenzaldehyde]	0.6	
Cc1ccc(Oc2cccc(C=O)c2)cc1 [3-(4-Methylphenoxy)benzaldehyde]	0.0	
O=Cc1c(F)c(F)cc(F)c1F [2,3,5,6-Tetrafluorobenzaldehyde]	0.3	
O=Cc1ccc(O)cc1 [4-Hydroxybenzaldehyde]	0.7	
O=Cc1ccccc1O [2-Hydroxybenzaldehyde]	0.4	
O=CC=O [Glyoxal]	0.6	
O=Cc1cc(Cl)cc(Cl)c1 [3,5-Dichlorobenzaldehyde]	-0.2	
O=CCCCC=O	0.7	
O=Cc1cccc(O)c1 [3-Hydroxybenzaldehyde]	0.8	
O=Cc1ccc(S(=O)(=O)O)o1 [5-Formylfuran-2 sulfonic Acid]	-3.3	
O=Cc1cc(F)cc(F)c1 [3,5-Difluorobenzaldehyde]	0.9	
O=Cc1ccccc1C(F)(F)F [2-Trifluoromethylbenzaldehyde]	10.2	

Compound	ΔΔRave on BC-1 at pH = 8 [1]	also measured
COc1ccc(C=O)cc1C [4-Methoxy-3-Methylbenzaldehyde]	0.4	
O=Cc1ccccc1[N+](=O)[O-] [2-Nitrobenzaldehyde]	0.1	
CCCCCCC=O [n-Heptyladehyde]	0.8	
Cc1cc(C)cc(C=O)c1 [3,5-Dimethylbenzaldehyde]	9.3	
Cc1cc(C)c(C=O)c(C)c1 [2,4,6-Trimethylbenzaldehyde]	6.3	
CCOc1ccc(C=O)cc1 [4-Ethoxybenzaldehyde]	0.4	
O=Cc1ccc(Br)cc1 [4-Bromobenzaldehyde]	0.1	
C/C=C/C=O [Crotonaldehyde]	0.7	
COc1cccc(C=O)c1 [3-Methoxybenzaldehyde]	0.6	
O=Cc1ncc[nH]1 [2-Imidazolecarboxy Aldehyde]	-0.5	
CCCCCCOc1ccc(C=O)cc1 [4-Hexyloxybenzaldehyde]	0.5	
O=Cc1cccc(C=O)c1 [Phenyl-1,3-dicarboxyaldehyde]	0.2	
CCCOc1ccc(C=O)cc1 [4-Propyoxybenzaldehyde]	0.2	
CCc1ccc(C=O)cc1 [4-Ethylbenzaldehyde]	11.5	cleaning / bleaching (in words) [2]: small and inconsistent; also recorded: do not effectively clean stubborn tea stains
Cc1ccc(C)c(C=O)c1 [2,5-Dimethylbenzaldehyde]	8.8	
O=C[C@H](O)[C@@H](O)[C@H](O)[C@H](O)CO [D-Glucose]	0.6	
Cc1ccc(C=O)c(C)c1 [2,4-Dimethylbenzaldehyde]	8.9	
O=Cc1cccc(Cl)c1 [3-Chlorobenzaldehyde]	1.9	
CC(C)(C)c1ccc(C=O)cc1 [4-t-Butylbenzaldehyde]	1.3	
Cc1cccc(C=O)c1 [3-Methylbenzaldehyde]	10.0	
CC(C)C=O [Isobutyraldehyde]	0.4	
CC(C=O)c1ccccc1 (stereo not drawn) [2-Phenylpropionaldehyde]	0.1	
O=C/C=C/c1ccccc1 [trans-Cinnamaldehyde]	1.2	
CN(C)c1ccc(C=O)cc1 [4-Dimethylaminobenzaldehyde]	1.0	
O=Cc1ccccc1F [2-Fluorobenzaldehyde]	1.0	
